What was measured:
[1] = target: T1, human PEPT1 (Homo sapiens, UniProt P46059); assay: Electrogenic transport (induced current) in Xenopus oocytes transfected with human PEPT1; assay type: cell-based
T1 construct: Rat and human PEPT1 and PEPT2 transporter cDNAs were subcloned into a modified pGEM plasmid; expressed in transfected cells; host or cells: Xenopus laevis oocytes injected with in vitro transcribed RNA
T1 sequence (P46059 1-708): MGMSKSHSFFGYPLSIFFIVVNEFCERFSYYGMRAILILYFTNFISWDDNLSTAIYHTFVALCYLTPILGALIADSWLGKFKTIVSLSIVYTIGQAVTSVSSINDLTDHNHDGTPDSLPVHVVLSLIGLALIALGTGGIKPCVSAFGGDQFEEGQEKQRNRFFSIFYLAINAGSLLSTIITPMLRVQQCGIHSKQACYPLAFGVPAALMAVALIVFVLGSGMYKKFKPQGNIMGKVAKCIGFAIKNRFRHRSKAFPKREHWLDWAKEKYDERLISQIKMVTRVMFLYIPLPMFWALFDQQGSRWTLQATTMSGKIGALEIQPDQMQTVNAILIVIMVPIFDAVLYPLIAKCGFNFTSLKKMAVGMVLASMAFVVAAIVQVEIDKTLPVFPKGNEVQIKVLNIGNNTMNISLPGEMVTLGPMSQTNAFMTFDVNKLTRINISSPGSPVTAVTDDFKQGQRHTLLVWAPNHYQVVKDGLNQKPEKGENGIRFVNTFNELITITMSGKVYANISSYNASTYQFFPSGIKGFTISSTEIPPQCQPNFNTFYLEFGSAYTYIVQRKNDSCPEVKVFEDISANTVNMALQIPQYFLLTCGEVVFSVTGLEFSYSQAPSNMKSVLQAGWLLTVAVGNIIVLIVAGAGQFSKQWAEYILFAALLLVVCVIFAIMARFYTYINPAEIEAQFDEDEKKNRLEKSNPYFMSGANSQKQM
Protocol: Rat and human PEPT1 and PEPT2 expressing CHO cell lines were prepared as described in PCT Application WO01/20331. Gabapentin-containing dipeptides were evaluated for interaction with the peptide transporters using a radiolabeled substrate uptake assay in a competitive inhibition format, as described in PCT Application WO01/20331. Transport-induced currents were also measured in Xenopus oocytes transfected with rat and human PEPT1 and PEPT2.
RNA preparation: Rat and human PEPT1 and PEPT2 transporter cDNAs were subcloned into a modified pGEM plasmid that contains 5′ and 3′ untranslated sequences from the Xenopus β-actin gene. These sequences increase RNA stability and protein expression. Plasmid cDNA was linearized and used as template for in vitro transcription (Epicentre Technologies transcription kit, 4:1 methylated:non-methylated guanosine triphosphate(GTP)).
Xenopus oocyte isolation. Xenopus laevis frogs were anesthetized by immersion in Tricaine ([…] in deionized water) for 15 min. […]
Electrophysiology measurements. Transport currents were measured 2-14 days after injection, using a standard two-electrode electrophysiology set-up (Geneclamp 500 amplifier, Digidata 1320/PCLAMP software and ADInstruments hardware and software were used for signal acquisition). […]

[2] = test system: Caco-2 cells; assay: Caco-2 transport with and without PEPT1/PEPT2 inhibitor Lys(ε-Dansyl)-Leu; assay type: cell-based, human; conditions: apical to basolateral, 600 μM Lys(ε-Dansyl)-Leu, FIG. 2
Description: Caco-2 cells are derived from the human colon and naturally express a number of colon-expressed transporters. The cells can be used to screen agents or conjugates for capacity to be transported by a colon expressed transporter. By screening agents or conjugates in the presence and absence of the specific PEPT1 and PEPT2 inhibitor Lys(ε-Dansyl)-Leu, one can determine whether PEPT1 and/or PEPT2 is a transporter mediating transport of the agent or conjugate. The role of PEPT1 and/or PEPT2 is shown by a decrease in transport in the presence of Lys(ε-Dansyl)-Leu.
1. Caco-2 cells are plated in either a 12 or 24 well Transwell plate and allowed to differentiate for 19-30 days prior to screening. Day 21 cells are optimal.
2. Dilutions of test compounds with or without Lys(ε-Dansyl)-Leu are prepared in assay buffer. pH 6.0
a. Concentrations of compounds are generally 1 mM with or without 600 μM Lys(Dansyl)-leucine.
b. 20 μM Propidium Iodide added as marker.
3. Spent media is aspirated from apical and basolateral chambers. To the apical chambers, 500 μL of test compound with or without Lys(ε-Dansyl)-Leu is added (125 μL for 24 well Transwell plates).
4. In the basolateral chambers, HBSS buffer pH 7.4 is added (1.5 mL for 12 well format, 875 μL for 24 well format).
5. At each timepoint, 50 μL is sampled from basolateral chambers and transferred to a LC/MS plate (Nunc, PP round bottom).
6. […]

**Q.** Which “Vmax relative to reference substrate Gly-Sar” value ([1]; 1 mM, oocytes transfected with human PEPT1) does the source give for CC(C)(N)C(=O)NCC1(CC(=O)O)CCCCC1 [Compound V, a-aminoisobutyryl gabapentin] here?
**A.** The value was 66%.

**Q.** And the “Vmax relative to Gly-Sar in the presence of PEPT inhibitor Lys(ε-Dansyl)-Leu” value ([1]; human PEPT transfected oocytes, with Lys(ε-Dansyl)-Leu)?
**A.** The value was < 5%.

**Q.** What about the “Transport across Caco-2 cells in presence and absence of Lys(ε-Dansyl)-Leu” value [2] of the same compound?
**A.** Its value is “inhibited by Lys(ε-Dansyl)-Leu”.

Source: US20030158254A1, “Engineering absorption of therapeutic compounds via colonic transporters” (XenoPort, Inc., priority 2002, published 2003)
